Measured values reported in PubChem BioAssay (NCI).
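Growth conditions: 96-well plates. Treatment: test compound, 48 hours, 5 concentrations. Analysis: linear interpolation between bracketing concentrations; unreached endpoints set to highest concentration. TGI: total growth inhibition.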

Legend:
Test in all cases: NCI tumour cell line growth inhibition, 48 h
UACC-257 melanoma = test system: UACC-257 melanoma
HCC-2998 colon = test system: HCC-2998 colon
NCI-H460 lung = test system: NCI-H460 lung
K-562 leukemia = test system: K-562 leukemia
SK-MEL-28 melanoma = test system: SK-MEL-28 melanoma
SF-268 CNS = test system: SF-268 CNS
SK-MEL-5 melanoma = test system: SK-MEL-5 melanoma
HCT-116 colon = test system: HCT-116 colon
786-0 renal = test system: 786-0 renal
UACC-62 melanoma = test system: UACC-62 melanoma
TK-10 renal = test system: TK-10 renal
U251 CNS = test system: U251 CNS
CCRF-CEM leukemia = test system: CCRF-CEM leukemia
HT29 colon = test system: HT29 colon
SNB-19 CNS = test system: SNB-19 CNS
KM12 colon = test system: KM12 colon
SNB-78 CNS = test system: SNB-78 CNS
IGROV1 ovarian = test system: IGROV1 ovarian
DMS 114 small cell lung = test system: DMS 114 small cell lung
OVCAR-5 ovarian = test system: OVCAR-5 ovarian
OVCAR-3 ovarian = test system: OVCAR-3 ovarian
SR leukemia = test system: SR leukemia
OVCAR-8 ovarian = test system: OVCAR-8 ovarian
MALME-3M melanoma = test system: MALME-3M melanoma
SK-OV-3 ovarian = test system: SK-OV-3 ovarian
SF-539 CNS = test system: SF-539 CNS
EKVX NSCLC = test system: EKVX NSCLC
NCI-H522 lung = test system: NCI-H522 lung
NCI-H23 lung = test system: NCI-H23 lung
UO-31 renal = test system: UO-31 renal
COLO 205 colon = test system: COLO 205 colon
A549 NSCLC = test system: A549 NSCLC
CAKI-1 renal = test system: CAKI-1 renal
DLD-1 colon = test system: DLD-1 colon
DMS 273 small cell lung = test system: DMS 273 small cell lung
MOLT-4 leukemia = test system: MOLT-4 leukemia
SW-620 colon = test system: SW-620 colon
SK-MEL-2 melanoma = test system: SK-MEL-2 melanoma
RXF 393 renal = test system: RXF 393 renal
RPMI-8226 leukemia = test system: RPMI-8226 leukemia
LXFL 529 NSCLC = test system: LXFL 529 NSCLC
SNB-75 CNS = test system: SNB-75 CNS
ACHN renal = test system: ACHN renal
HOP-92 NSCLC = test system: HOP-92 NSCLC
A498 renal = test system: A498 renal
SN12C renal = test system: SN12C renal
SF-295 CNS = test system: SF-295 CNS
M19-MEL melanoma = test system: M19-MEL melanoma
MCF7 breast = test system: MCF7 breast
HS 578T breast = test system: HS 578T breast
OVCAR-4 ovarian = test system: OVCAR-4 ovarian
NCI-H226 lung = test system: NCI-H226 lung
BT-549 breast = test system: BT-549 breast
MDA-MB-231 breast = test system: MDA-MB-231 breast
NCI/ADR-RES ovarian = test system: NCI/ADR-RES ovarian
M14 melanoma = test system: M14 melanoma
MDA-N = test system: MDA-N
HOP-62 NSCLC = test system: HOP-62 NSCLC
LOX IMVI melanoma = test system: LOX IMVI melanoma
PC-3 prostate = test system: PC-3 prostate
T-47D breast = test system: T-47D breast
HCT-15 colon = test system: HCT-15 colon
DU-145 prostate = test system: DU-145 prostate
MDA-MB-435 = test system: MDA-MB-435
HL-60(TB) leukemia = test system: HL-60(TB) leukemia

Measured: TGI

C[Si]12OCCCN(CCO1)CCO2
not listed: MCF7 breast | HS 578T breast | OVCAR-4 ovarian | NCI-H226 lung | BT-549 breast | MDA-MB-231 breast | NCI/ADR-RES ovarian | M14 melanoma | MDA-N | HOP-62 NSCLC | LOX IMVI melanoma | PC-3 prostate | T-47D breast | HCT-15 colon | DU-145 prostate | MDA-MB-435 | HL-60(TB) leukemia
> 100 µM: all other assays above

O=C(NC1(C(=O)O)CC1c1ccccc1)c1ccccc1 (stereo not given)
not listed: SK-MEL-5 melanoma | CCRF-CEM leukemia | SNB-78 CNS | DMS 114 small cell lung | DLD-1 colon | DMS 273 small cell lung | LXFL 529 NSCLC | M19-MEL melanoma
> 100 µM: all other assays above
